Laboratory results published in PubChem BioAssay AID1963970 (Molecular Pharmacology Branch, DTP, NCI, 2024).
Where “and” joins values, the source holds several entries; their conditions need not be identical. Equal values may be shown once.

System: 931267-113-T-J1-PDC multicell spheroid viability
Experiment: Anticancer human tumor 931267-113-T-J1-PDC patient-derived colon adenocarcinoma cell line growth inhibition [PI3K]
Details: for viability, T/C: stronger effect = lower value
In short: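 We assembled tumor spheroids that included a stromal compartment of HUVEC and MSCs, then exposed them to targeted agents alone and together with PI3K pathway inhibitors. Concentration series descended by half-log from clinically achievable Cmax levels. Viability served as the endpoint.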
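Also: viability read 7 days after compound addition.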

Q: For `Cn1ncnc1[C@H]1c2n[nH]c(=O)c3cc(F)cc(c23)N[C@@H]1c1ccc(F)cc1`, which viability, T/C (compound 0.000316 µM) is on record?
A: Its viability, T/C is 104% [middle of 4 runs].

Q: And the viability, T/C (compound 0.001 µM)?
A: Its viability, T/C is 107% [middle of 4 runs].

Q: What about the viability, T/C (compound 0.00316 µM) of the same molecule?
A: Its viability, T/C is 101% [middle of 4 runs].

Q: And the viability, T/C (compound 0.01 µM)?
A: Its viability, T/C is 111% and 106% and 97% (2×).

Q: And the viability, T/C (compound 0.0316 µM)?
A: The viability, T/C was 112% [middle of 4 runs].

Q: And the viability, T/C (compound 0.1 µM)?
A: The viability, T/C was 95.6% [middle of 4 runs].

Q: And the IC50 (curve of compound)?
A: Its IC50 is greater than 100 nM.
